# Reference: US20240376154A1, “BIS-INTERCALATING PEPTIDES, CONJUGATES AND METHODS OF USE” (ZYMEWORKS BC INC., priority 2023, published 2024)
# Experiments:
# [1] = tested on: tumour cells (at least 4 of a panel of ovarian, breast, lung, pancreatic, placenta, colon cell lines); assay: In vitro cytotoxicity (cell proliferation, CellTiter-Glo), average over tumour cell line panel; type: cell-based; conditions: average pIC50 on all cell lines tested; 5 nights incubation; CellTiter-Glo
# Description: The ability of representative compounds of Formula I to inhibit proliferation of tumour cells in vitro was evaluated in at least 4 of the following cell lines: OVCAR-3 (ovarian, ATCC), SKOV-3 (ovarian, ATCC), IGROV-1 (ovarian, national research council of Canada (NRC)), OV-90 (ovarian, ATCC), OVKATE (Ovarian, Japanese Collection of Research Bioresources (JCRB) (JCRB1044)), JIMT-1 (breast, NRC), SK-BR-3 (breast, ATCC), T-47D (breast, ATCC), ZR-75-1 (breast, ATCC), MDA-MB-468 (breast, AddexBio), BT-20 (breast, ATCC), BT-474 (breast, NRC), MDA-MB-175 (breast, AddexBio), A549 (lung, collaborator), NCI-H226 (lung, NRC), NCI-H661 (lung, NRC), NCI-H1573 (lung, ATCC). NCI-H1563 (lung, ATCC), H358 (lung, collaborator), EBC-1 (lung, Xenotech), H1299 (lung, NRC), NCI-H292 (lung, ATCC), HCC817 (lung, ATCC), NCI-H441 (lung, ATCC), MIA-PaCa-2 (pancreatic, ATCC), BxPC-3 (pancreatic, ATCC), Panc-1 (pancreatic, ATCC), AsPC-1 (pancreatic, ATCC), JEG-3 (placenta, AddexBio), HT-29 (colon, ATCC).
# Cells were cultured per vendor instructions and in log-phase growth were detached by brief incubation in 0.05% trypsin, then resuspended in respective culturing media at 20,000 cells/mL (except for ZR-75 cells, which were resuspended at 10,000 cells/mL). 50 μL/well (˜1000 cells/well) were transferred to sterile tissue culture (TC)-treated 384-well plates (ThermoFisher Scientific, Catalogue #164610) and incubated overnight at 37° C. with 5% CO2 to allow the cells to adhere to the plate surface. The next day, in a sterile, V-bottom, 96-well plate, test articles were titrated 1:3 in complete growth medium, creating a 10-point dose response titration with compounds at 3.5-times the desired final concentration. 20 μL from each dilution were added to the 384-well plate containing the seeded cells and these plates were incubated at 37° C. with 5% CO2 for 5 nights. Cell viability was quantified by first incubating with 15 μL/well of CellTiter-Glo® (Promega, Catalogue #G7572) for 30 minutes, then measuring luminescence with a microplate luminometer (BioTek® Synergy™ H1 Microplate Reader). IC50 values were determined by GraphPad Prism (GraphPad Software, San Diego, CA).
# The results are presented in Table 7.1 and discussed in Example 7. Table 7.1 presents the results as average pIC50 values. pIC50=−log (IC50), thus, for example, pIC50=9 is equivalent to IC50=1 nM, and pIC50=6 is equivalent to IC50=1 μM.
# [2] = Lipophilicity by experimental HPLC retention time; type: physicochemical; conditions: HPLC retention time as measure of lipophilicity; C18, 10 to 90% CH3CN/H2O with 0.1% FA over 25 min
# Description: The ability to kill neighboring cells (i.e. bystander effect) is an important property for ADC payloads. For a payload comprising a compound of Formula I to be capable of bystander killing, membrane permeability (or transport) is required and the ability of compounds of Formula I to cross cell membranes and exert a cytotoxic effect was expected to be heavily influenced by lipophilicity.
# Compounds were analyzed using an Agilent 1260 HPLC (Agilent Technologies, Inc., Santa Clara, CA) equipped with a Diode array detector and using a Phenomenex Kinetex EVO C18 150×4.6, 2.6 μm column (Phenomenex, Torrance, CA), eluting with 10 to 90% CH3CN/H2O with 0.1% FA over 25 min.
# [3] = amide bond; 32-membered ring
Molecule,pIC50 (average) [1],HPLC [2] [min],"ring closure, isolated yield [3] [%]"
"CC(C)[C@H]1C(=O)NC[C@@H](NC(=O)c2nc3ccccc3cc2O)C(=O)N2CCCC[C@H]2C(=O)NCC(=O)N(C)CC(=O)N(C)[C@@H](c2ccccc2)C(=O)NC[C@@H](NC(=O)c2nc3ccccc3cc2O)C(=O)N2CCCC[C@H]2C(=O)NCC(=O)N(C)CC(=O)N1C [Compound 103, N,N′-((7R,11S,19aS,26R,30S,38aS)-11-isopropyl-12,15,31,34-tetramethyl-6,10,13,16,19,25,29,32,35,38-decaoxo-30-phenylhexatriacontahydro-2H,6H-dipyrido[1,2-a:1′,2′-q][1,4,7,10,13,17,20,23,26,29]decaazacyclodotriacontine-7,26-diyl)bis(3-hydroxyquinoline-2-carboxamide)]",7.3,17.2,
"CC(C)[C@H]1C(=O)NC[C@@H](NC(=O)c2nc3ccccc3cc2O)C(=O)N2CCCC[C@H]2C(=O)NCC(=O)N(C)CC(=O)N(C)C2(CC2)C(=O)NC[C@@H](NC(=O)c2nc3ccccc3cc2O)C(=O)N2CCCC[C@H]2C(=O)NCC(=O)N(C)CC(=O)N1C [Compound 109, N,N′-((7′R,19a'S,26′R,30'S,38a'S)-30′-isopropyl-12′,15′,31′,34′-tetramethyl-6′,10′,13′,16′,19′,25′,29′,32′,35′,38′-decaoxotetratriacontahydro-2′H,6′H,12′H-spiro[cyclopropane-1,11′-dipyrido[1,2-a:1′,2′-q][1,4,7,10,13,17,20,23,26,29]decaazacyclodotriacontine]-7′,26′-diyl)bis(3-hydroxyquinoline-2-carboxamide)]",7.77,15.4,
"CC(C)[C@H]1C(=O)NC[C@@H](NC(=O)c2nc3ccccc3cc2O)C(=O)N2CCCC[C@H]2C(=O)NCC(=O)N(C)CC(=O)N(C)C(C)(C)C(=O)NC[C@@H](NC(=O)c2nc3ccccc3cc2O)C(=O)N2CCCC[C@H]2C(=O)NCC(=O)N(C)CC(=O)N1C [Compound 115, N,N′-((7R,19aS,26R,30S,38aS)-30-isopropyl-11,11,12,15,31,34-hexamethyl-6,10,13,16,19,25,29,32,35,38-decaoxohexatriacontahydro-2H,6H-dipyrido[1,2-a:1′,2′-q][1,4,7,10,13,17,20,23,26,29]decaazacyclodotriacontine-7,26-diyl)bis(3-hydroxyquinoline-2-carboxamide)]",Inactive,15.8,
"CC(C)[C@H]1C(=O)NC[C@@H](NC(=O)c2nc3ccccc3cc2O)C(=O)N2CCCC[C@H]2C(=O)NCC(=O)N(C)CC(=O)N(C)C2(CCC2)C(=O)NC[C@@H](NC(=O)c2nc3ccccc3cc2O)C(=O)N2CCCC[C@H]2C(=O)NCC(=O)N(C)CC(=O)N1C [Compound 121, N,N′-((7′R,19a'S,26′R,30'S,38a'S)-30′-isopropyl-12′,15′,31′,34′-tetramethyl-6′,10′,13′,16′,19′,25′,29′,32′,35′,38′-decaoxotetratriacontahydro-2′H,6′H,12′H-spiro[cyclobutane-1,11′-dipyrido[1,2-a:1′,2′-q][1,4,7,10,13,17,20,23,26,29]decaazacyclodotriacontine]-7′,26′-diyl)bis(3-hydroxyquinoline-2-carboxamide)]",8.18,17.0,
"CC[C@H](C)[C@H]1C(=O)NC[C@@H](NC(=O)c2nc3ccc(Br)cc3cc2O)C(=O)N2CCCC[C@H]2C(=O)NCC(=O)N(C)CC(=O)N(C)[C@@H]([C@@H](C)CC)C(=O)NC[C@@H](NC(=O)c2nc3ccc(Br)cc3cc2O)C(=O)N2CCCC[C@H]2C(=O)NCC(=O)N(C)CC(=O)N1C [Compound 127, N,N′-((7R,11S,19aS,26R,30S,38aS)-11,30-di((S)-sec-butyl)-12,15,31,34-tetramethyl-6,10,13,16,19,25,29,32,35,38-decaoxohexatriacontahydro-2H,6H-dipyrido[1,2-a:1′,2′-q][1,4,7,10,13,17,20,23,26,29]decaazacyclodotriacontine-7,26-diyl)bis(6-bromo-3-hydroxyquinoline-2-carboxamide)]",8.7,21.0,
"CCN1C(=O)CN(C)C(=O)CNC(=O)[C@@H]2CCCCN2C(=O)[C@H](NC(=O)c2nc3ccccc3cc2O)CNC(=O)[C@H](C(C)C)N(CC)C(=O)CN(C)C(=O)CNC(=O)[C@@H]2CCCCN2C(=O)[C@H](NC(=O)c2nc3ccccc3cc2O)CNC(=O)[C@@H]1C(C)C [Compound 147, N,N′-((7R,11S,19aS,26R,30S,38aS)-12,31-diethyl-11,30-diisopropyl-15,34-dimethyl-6,10,13,16,19,25,29,32,35,38-decaoxohexatriacontahydro-2H,6H-dipyrido[1,2-a:1′,2′-q][1,4,7,10,13,17,20,23,26,29]decaazacyclodotriacontine-7,26-diyl)bis(3-hydroxyquinoline-2-carboxamide)]",8.5,17.9,
"CN1CC(=O)N2CCCCC[C@H]2C(=O)NC[C@@H](NC(=O)c2nc3ccccc3cc2O)C(=O)N2CCCC[C@H]2C(=O)NCC(=O)N(C)CC(=O)N2CCCCC[C@H]2C(=O)NC[C@@H](NC(=O)c2nc3ccccc3cc2O)C(=O)N2CCCC[C@H]2C(=O)NCC1=O [Compound 157, N,N′-((7R,10aS,23aS,30R,33aS,46aS)-19,42-dimethyl-6,10,17,20,23,29,33,40,43,46-decaoxotetratetracontahydro-6H,29H-bis(azepino) [1,2-j:1′,2′-z]dipyrido[1,2-a:1′,2′-q][1,4,7,10,13,17,20,23,26,29]decaazacyclodotriacontine-7,30-diyl)bis(3-hydroxyquinoline-2-carboxamide)]",7.1,15.8,
"CN1CC(=O)N(C)[C@@H](C2CCCCC2)C(=O)NC[C@@H](NC(=O)c2nc3ccccc3cc2O)C(=O)N2CCCC[C@H]2C(=O)NCC(=O)N(C)CC(=O)N(C)[C@@H](C2CCCCC2)C(=O)NC[C@@H](NC(=O)c2nc3ccccc3cc2O)C(=O)N2CCCC[C@H]2C(=O)NCC1=O [Compound 162, N,N′-((7R,11S,19aS,26R,30S,38aS)-11,30-dicyclohexyl-12,15,31,34-tetramethyl-6,10,13,16,19,25,29,32,35,38-decaoxohexatriacontahydro-2H,6H-dipyrido[1,2-a:1′,2′-q][1,4,7,10,13,17,20,23,26,29]decaazacyclodotriacontine-7,26-diyl)bis(3-hydroxyquinoline-2-carboxamide)]",9.1,20.7,
"CC[C@H](C)[C@H]1COC[C@@H](NC(=O)c2nc3ccccc3cc2O)C(=O)N2CCCC[C@H]2C(=O)NCC(=O)N(C)CC(=O)N(C)[C@@H](C(C)C)C(=O)NC[C@@H](NC(=O)c2nc3ccccc3cc2O)C(=O)N2CCCC[C@H]2C(=O)NCC(=O)N(C)CC(=O)N1C [Compound 197, N,N′-((7R,11S,19aS,26R,30S,38aS)-11-((S)-sec-butyl)-30-isopropyl-12,15,31,34-tetramethyl-6,13,16,19,25,29,32,35,38-nonaoxotetratriacontahydro-2H,6H,10H-dipyrido[2,1-b1: 2′,1′-l][1]oxa[4,7,10,13,17,20,23,26,29]nonaazacyclodotriacontine-7,26-diyl)bis(3-hydroxyquinoline-2-carboxamide)]",9.4,19.4,
"Benzyl tert-butyl ((3aS,7R,13aS,22S,26R,32aS)-22-isopropyl-18,21,37-trimethyl-4,8,14,17,20,23,27,33,36,39-decaoxooctatriacontahydro-1H,10H-dipyrido[1,2-a:1′,2′-q]pyrrolo[1,2-j][1,4,7,10,13,17,20,23,26,29]decaazacyclodotriacontine-7,26-diyl)dicarbamate",,,62
